Laboratory results: US20260191998A1, “INDOLE PHTHALOCYANINE COMPOUND, PREPARATION METHOD THEREFOR, AND USE THEREOF IN TUMOR DIAGNOSIS IMAGING” (JIANGSU YAHONG MEDITECH CO., LTD., priority 2022, published 2026)
Structures can show the parent of a compound that is named as a salt.

Experiments:
[1] = tested on: human bladder cancer cell line UM-UC-3; experiment: In vitro imaging effect test with addition of BSP, UM-UC-3; format: cell-based; conditions: 250 μM BSP, compound 1-20 μM with surfactin 1:5, 30 minutes
Procedure: UM-UC-3 (1.5×10^4/well) were cultured in EMEM medium (containing 10% fetal bovine serum (FBS) and 1% antibiotics (100 U/mL penicillin and 100 U/mL streptomycin)) and seeded in a 96-well plate in advance. The plate was cultured in a 5% CO2 cell culture incubator at 37° C. overnight. The following day, the culture medium was sucked away, and 250 μM of BSP was added to the test wells and preconditioned for 10 minutes, followed by addition of the culture medium containing an appropriate concentration (1-20 μM) of the compound and surfactin (the molar ratio of the test compound to the surfactin being 1:5) with or without 250 μM of BSP, and then incubated for 30 minutes. The cells were rinsed three times with PBS solution, and the near-infrared fluorescence intensity in the bladder cancer cells was observed using an integrated fluorescence microscopic imaging system from Keyence. The conditions for near-infrared photography were Ex=775/50 nm and Em=845/55 nm.

[2] = tested on: RT112 tumor; conditions: 2 mg/kg or 0.4 mg/kg intraperitoneal, 48 hours after injection
Procedure: All animal experiments were conducted exactly in accordance with the guidelines for the care and use of animals issued by the regional animal committee. A mouse model of xenograft RT112 tumor was established by subcutaneous injection of RT112 cell suspension (2×10^6 cells/mouse, 0.1 ml PBS) into the upper right limb of 8- to 10-week-old BALB/C female nude mice (20 to 25 g). BABL/c nude mice (15 to 20 g) were purchased from Beijing Vital River Laboratory Animal Technology Co., Ltd. For in vivo near-infrared fluorescence (NIRF) imaging, the RT112 tumor-bearing mice were intraperitoneally injected with different doses of free compounds (2 mg/kg or 0.4 mg/kg), respectively. At 48 hours after injection, near-infrared imaging was performed using an IVIS Lumina spectroscopic imaging system (excitation/emission, 780/845 nm).

[3] = UV-VIS absorption spectra (optical property test); format: physicochemical; conditions: 10 μM, DMSO solution; for Absorbance × 10^4: at maximum absorption peak
Procedure: The UV-VIS absorption spectra of the compounds (10 μM, DMSO solution) were detected using Shimadzu UV2600 spectrophotometer, and the maximum absorption peak and absorbance of each compound were obtained.

[4] = Kinetic solubility in phosphate buffered saline (HPLC); format: physicochemical; conditions: phosphate buffered saline (PBS), aqueous buffer, kinetic from dmso stock, 25° C., shaken 2 hours, from 10 mM DMSO stock
Procedure: The compounds were weighed in an appropriate amount and dissolved in DMSO to prepare a 10 mM stock solution. 30 μL of the stock solution was taken and 970 μL of phosphate buffered saline solution (PBS) was added thereto. The solution was shaken at 25° C. on a thermostatic mixer for 2 hours, and centrifuged at 12000 rpm for 10 minutes. The supernatant was taken, and the kinetic solubility of each compound in phosphate buffered saline solution (PBS) was determined by Waters Acquity Arc HPLC.

[5] = tested on: RT112 tumor; experiment: Tumor/background ratio in subcutaneous RT112 tumor model mice; format: in vivo; conditions: 2 mpk intraperitoneal, 48 hours after injection
From the text: The subcutaneous tumor model mice inoculated with RT112 tumor were selected. Each compound was administrated at a dose of 2 mpk, and intraperitoneally injected.

[6] = molecular target: hERG channels (Homo sapiens, UniProt Q12809); experiment: hERG whole-cell patch clamp in HEK 293 cells stably expressing hERG; format: cell-based; conditions: HEK 293 stably expressing hERG, tail current
Procedure: The HEK 293 cell line (K1236) stably expressing hERG was purchased from Invitrogen. Cells were cultured in 85% DMEM, 10% dialyzed FBS, 0.1 mM NEAA, 25 mM HEPES, 100 U/mL penicillin-streptomycin, 5 μg/mL blasticidin and 400 μg/mL geneticin. Cells were split using TrypLE™ about three times a week, and maintained at a confluence of about 40% to about 80%. Before measurement, cells were cultured at a density of 5×10^5 in a 6 cm culture dish and induced with 1 μg/mL doxycycline for 48 hours.
Extracellular solution (mM): 132 NaCl, 4 KCl, […], 0.5 MgCl2, 11.1 glucose, 10 HEPES (pH 7.35 adjusted with NaOH);
Intercellular solution (mM): 140 KCl, 2 MgCl2, 10 EGTA, 10 HEPES, 5 MgATP (pH 7.35 adjusted with KOH).
The test compounds were formulated in DMSO to prepare a stock solution with a final concentration of 10 mM.
Then, the stock solution of each compound was diluted with DMSO in a 1:3 serial dilution to prepare five intermediate solutions with concentrations of 3, 1, 0.33, 0.12, 0.04 mM or 3.33, 1.11, 0.37, 0.12 mM, respectively.
Before testing, the final working solutions were prepared by diluting the intermediate solutions 1000 times with the extracellular solution. The concentration of DMSO in the working solutions was within a range around 0.1%.
The working solutions at five different concentrations of 3, 1, 0.33, 0.12 and 0.04 μM were used to determine the potential inhibition effect of the compounds on hERG channels and to fit concentration-response curves and calculate IC50.
The coverslip was removed from the cell culture dish and placed on a microscope stage.
A 10× objective was used to locate cells to be observed. An electrode tip was located under the microscope using the 10× objective by focusing above the plane of the cells. Once the tip was in focus, the electrode was advanced downward towards the cells under rough control of the manipulator, while the objective was moved so as to keep the tip in focus.
When the electrode was directly over a cell, the objective was switched to a 40× objective and fine control of the manipulator was used to enable to gradually approach the cell surface.
With gentle suction through a side port of an electrode holder, a giga-ohm seal was formed.
Cfast was used to eliminate the capacitive current consistent with the voltage step. Brief and strong suction was applied repeatedly until the membrane patch ruptured and the whole-cell configuration was obtained.
At this point, membrane potential was set to −60 mV in order to ensure that hERG channels were not open. Then, Cslow on the amplifier was used to remove the spikes of capacitive current.
Holding potential was set to −90 mV for 500 ms. Current was recorded at 20 kHz and filtering was carried out at 10 kHz. Leak current was tested at −80 mV for 500 ms.
The hERG current was elicited by depolarizing at +30 mV for 4.8 seconds, and then the voltage was restored to −50 mV for 5.2 seconds to remove the inactivation and observe the deactivating tail current. The maximum of tail current size was used to determine hERG current amplitude.
Current was recorded for 120 seconds to evaluate the current stability. Only stable cells with recording parameters above thresholds were used for drug administrations.
Firstly, vehicle control was applied to the cells to establish the baseline. […] The hERG current in the presence of the test compound was recorded for about 5 minutes to reach a steady state, and then 5 sweeps were captured. For dose-response testing, multiple compounds were applied to the cells cumulatively from low to high concentrations (multiple compounds were detected simultaneously). The positive control, Dofetilide at a concentration of 150 nM, was also applied to each cell post hERG current measurement at the highest concentration of the test compound, which was used as an internal low control for normalization of percentage inhibition. […]

hERG channels, sequence (Q12809 whole entry): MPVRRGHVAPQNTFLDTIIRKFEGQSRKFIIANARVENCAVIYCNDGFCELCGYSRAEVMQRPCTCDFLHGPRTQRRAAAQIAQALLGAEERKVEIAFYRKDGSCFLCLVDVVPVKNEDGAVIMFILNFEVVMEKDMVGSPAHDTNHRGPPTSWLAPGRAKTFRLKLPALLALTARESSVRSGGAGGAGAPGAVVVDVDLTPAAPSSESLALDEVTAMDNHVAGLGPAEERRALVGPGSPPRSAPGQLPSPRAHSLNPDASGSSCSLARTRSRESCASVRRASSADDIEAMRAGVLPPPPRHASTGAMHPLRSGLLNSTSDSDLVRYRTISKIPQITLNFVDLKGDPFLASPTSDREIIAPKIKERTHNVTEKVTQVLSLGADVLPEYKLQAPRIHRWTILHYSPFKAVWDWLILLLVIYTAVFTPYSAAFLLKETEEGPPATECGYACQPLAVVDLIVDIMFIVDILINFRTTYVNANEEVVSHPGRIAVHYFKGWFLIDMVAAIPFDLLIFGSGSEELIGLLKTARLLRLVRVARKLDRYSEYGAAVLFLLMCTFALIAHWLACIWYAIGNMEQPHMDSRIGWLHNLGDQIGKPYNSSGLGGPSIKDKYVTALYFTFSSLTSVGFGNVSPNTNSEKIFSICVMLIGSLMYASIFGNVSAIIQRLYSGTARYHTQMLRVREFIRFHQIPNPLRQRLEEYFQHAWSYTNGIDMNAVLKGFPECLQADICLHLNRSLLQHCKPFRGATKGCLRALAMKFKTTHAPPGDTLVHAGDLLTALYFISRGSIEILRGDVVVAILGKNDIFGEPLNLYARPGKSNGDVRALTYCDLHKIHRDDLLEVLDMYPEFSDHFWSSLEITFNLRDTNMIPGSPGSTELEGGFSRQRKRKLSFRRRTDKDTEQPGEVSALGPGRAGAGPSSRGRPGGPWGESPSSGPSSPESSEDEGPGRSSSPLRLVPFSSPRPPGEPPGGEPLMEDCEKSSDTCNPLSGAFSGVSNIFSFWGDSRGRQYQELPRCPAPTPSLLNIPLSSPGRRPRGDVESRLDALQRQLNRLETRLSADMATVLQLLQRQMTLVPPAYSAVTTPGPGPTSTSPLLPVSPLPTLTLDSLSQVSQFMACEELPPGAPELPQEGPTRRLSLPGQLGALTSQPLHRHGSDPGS

In the case of `CC[N+]1=C(/C=C/C2=C(Cl)C(=C/C=C3/N(CCOCCC(=O)Oc4ccccc4)c4ccccc4C3(C)C)/CCC2)C(C)(C)c2ccccc21` [Example 7, 2-((E)-2-((E)-2-chloro-3-(2-((E)-3,3-dimethyl-1-(2-(3-oxo-3-phenoxypropoxy)ethyl)indolin-2-ylidene)ethenyl)cyclohex-1-en-1-yl)ethenyl)-1-ethyl-3,3-dimethyl-3H-indol-1-ium Trifluoroacetate], the “Uptake by UM-UC-3 with or without BSP” value [1] is reported as “may be weakened or enhanced by BSP”, the “Enrichment at the tumor sites (NIR fluorescence)” value (“Enrichment at the tumor sites” for short) [2] is reported as “specifically enriched at the tumor sites” and the Absorption peak [3] is reported as 794.5 nm. The “Absorbance × 10^4” value [3] was 1.92.
For `CC[N+]1=C(/C=C/C2=C(Cl)C(=C/C=C3/N(CCOCC(=O)Oc4ccccc4)c4ccccc4C3(C)C)/CCC2)C(C)(C)c2ccccc21` [Example 8, 2-((E)-2-((E)-2-chloro-3-(2-((E)-3,3-dimethyl-1-(2-(2-oxo-2-phenoxyethoxy)ethyl)indolin-2-ylidene)ethenyl)cyclohex-1-en-1-yl)ethenyl)-1-ethyl-3,3-dimethyl-3H-indol-1-ium Trifluoroacetate], the “Uptake by UM-UC-3 with or without BSP” value [1] was “may be weakened or enhanced by BSP”, the “Enrichment at the tumor sites” value [2] was “specifically enriched at the tumor sites” and the Absorption peak [3] was 794.5 nm. For the same compound, the “Absorbance × 10^4” value [3] was 1.96.
For `C[N+]1=C(/C=C/C2=C(Cl)C(=C/C=C3/N(CCCCCC(=O)O)c4ccccc4C3(C)C)/CC2)C(C)(C)c2ccccc21` [Example 10, 2-((E)-2-((E)-3-(2-((E)-1-(5-carboxypentyl)-3,3-dimethylindolin-2-ylidene)ethenyl)-2-chlorocyclopent-1-en-1-yl)ethenyl)-1,3,3-trimethyl-3H-indol-1-ium Chloride], the solubility kinetic at 2 h [4] was 26 µg/mL, the “Uptake by UM-UC-3 with or without BSP” value [1] was “may be weakened or enhanced by BSP” and the “Enrichment at the tumor sites” value [2] was “specifically enriched at the tumor sites”. The Tumor/background ratio [5] was 3.3, the Absorption peak [3] was 821 nm and the “Absorbance × 10^4” value [3] was 2.08. For the same compound, the IC50 [6] was 1330 nM.
